In patent publication US12077503B2, “Substituted cyclic amides and their use as herbicides” (FMC CORPORATION, priority 2015, dated 2024):

Tests used:
Type in all cases: in vivo
[1] = test system: sedge, umbrella (small-flower umbrella sedge, Cyperus difformis); test: Test B flooded paddy test; conditions: Cyperus difformis, 360 h, Flood, 250 g ai/ha; visually evaluated after 13 to 15 d; read-out: Plant response rating, Sedge, Umbrella (0 to 100 scale where 0 is no effect and 100 is complete control)
Outline: (§1)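 2-leaf plants; pots flooded 3 cm over soil; cpd added to paddy water; depth held; greenhouse 13–15 d; visual rating vs controls, 0 = no effect, 100 = complete control.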

rice (Oryra sativa) = test: Test B flooded paddy test; conditions: Oryza sativa, 360 h, Flood, 250 g ai/ha; visually evaluated after 13 to 15 d; read-out: Plant response rating, Rice (0 to 100 scale where 0 is no effect and 100 is complete control)
Outline: as §1

[2] = test system: barnyardgrass (Echinochloa crus-galli); test: Test B flooded paddy test; conditions: Echinochloa crus-galli, 360 h, Flood, 250 g ai/ha; visually evaluated after 13 to 15 d; read-out: Plant response rating, Barnyardgrass (0 to 100 scale where 0 is no effect and 100 is complete control)
Outline: as §1

[3] = test system: ducksalad (Heteranthera limosa); test: Test B flooded paddy test; conditions: Heteranthera limosa, 360 h, Flood, 250 g ai/ha; visually evaluated after 13 to 15 d; read-out: Plant response rating, Ducksalad (0 to 100 scale where 0 is no effect and 100 is complete control)
Outline: as §1

[4] = test system: wheat (Triticum aestivum); test: Test A postemergence; conditions: Triticum aestivum, post-emergence, 240 h, Postemergence
Outline: (§2)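 Greenhouse, ~10 d after spray; visual injury vs untreated controls, 0 = no effect, 100 = complete control. Preemergence: directed soil spray over planted seeds. Postemergence: plants 2–10 cm, 1–2 leaf stage. Loam/sand blend. Compound in non-phytotoxic solvent with surfactant.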

[5] = test system: Galium (catchweed bedstraw, Galium aparine); test: Test A postemergence; conditions: Galium, post-emergence, 240 h, Postemergence
Outline: as §2

[6] = test system: pigweed (Amaranthus retroflexus); test: Test A postemergence; conditions: Amaranthus retroflexus, post-emergence, 240 h, Postemergence
Outline: as §2

[7] = test system: giant foxtail (Setaria faberii); test: Test A postemergence; conditions: Setaria faberi, post-emergence, 240 h, Postemergence
Outline: as §2

[8] = test system: blackgrass (Alopecurus myosuroides); test: Test A postemergence; conditions: Alopecurus myosuroides, post-emergence, 240 h, Postemergence
Outline: as §2

[9] = test system: barnyardgrass (Echinochloa crus-galli); test: Test A postemergence; conditions: Echinochloa crus-galli, post-emergence, 240 h, Postemergence
Outline: as §2

[10] = test system: ragweed (common ragweed, Ambrosia elatior); test: Test A postemergence; conditions: Ambrosia artemisiifolia, post-emergence, 240 h, Postemergence
Outline: as §2

Kochia (Kochia scoparia) [11] = test: Test A postemergence; conditions: Bassia scoparia, post-emergence, 240 h, Postemergence
Outline: as §2

corn (Zea mays) = test: Test A postemergence; conditions: Zea mays, post-emergence, 240 h, Postemergence
Outline: as §2

[12] = test system: ryegrass, Italian (Italian ryegrass, Lolium multiflorum); test: Test A postemergence; conditions: Lolium multiflorum, post-emergence, 240 h, Postemergence
Outline: as §2

[13] = test system: pigweed (Amaranthus retroflexus); test: Test A preemergence; conditions: Amaranthus retroflexus, pre-emergence, 240 h, Preemergence
[14] = test system: giant foxtail (Setaria faberii); test: Test A preemergence; conditions: Setaria faberi, pre-emergence, 240 h, Preemergence
Outline: as §2

[15] = test system: barnyardgrass (Echinochloa crus-galli); test: Test A preemergence; conditions: Echinochloa crus-galli, pre-emergence, 240 h, Preemergence
Outline: as §2

[16] = test system: ragweed (common ragweed, Ambrosia elatior); test: Test A preemergence; conditions: Ambrosia artemisiifolia, pre-emergence, 240 h, Preemergence
Outline: as §2

Kochia (Kochia scoparia) [17] = test: Test A preemergence; conditions: Bassia scoparia, pre-emergence, 240 h, Preemergence
Outline: as §2

[18] = test system: ryegrass, Italian (Italian ryegrass, Lolium multiflorum); test: Test A preemergence; conditions: Lolium multiflorum, pre-emergence, 240 h, Preemergence
Outline: as §2

## CN1C[C@H](c2ccc(Br)cc2)[C@@H](C(=O)Nc2ccc(F)c(F)c2F)C1=O [Compound 1393]
[1]
  pest or weed control at 250 g/ha: 0%
Rice (Oryra sativa)
  pest or weed control at 250 g/ha: 55%
[2]
  pest or weed control at 250 g/ha: 85%
[3]
  pest or weed control at 250 g/ha: 100%
[4]; 31 g ai/ha, 0 is no effect, 100 is complete control, read-out: Wheat plant response rating (0 to 100 scale)
  plant injury at 31 g/ha: 0%
[4]; 125 g ai/ha, visual injury after approx. 10 d, 0 to 100 scale, 0 no effect, 100 complete control, read-out: Plant response rating, Wheat
  plant injury at 125 g/ha: 30%
[5]; 31 g ai/ha, 0 is no effect, 100 is complete control, read-out: Galium plant response rating (0 to 100 scale)
  pest or weed control at 31 g/ha: 50%
[5]; 125 g ai/ha, visual injury after approx. 10 d, 0 to 100 scale, 0 no effect, 100 complete control, read-out: Plant response rating, Galium
  pest or weed control at 125 g/ha: 60%
[6]; 31 g ai/ha, 0 is no effect, 100 is complete control, read-out: Pigweed plant response rating (0 to 100 scale)
  pest or weed control at 31 g/ha: 40%
[6]; 125 g ai/ha, visual injury after approx. 10 d, 0 to 100 scale, 0 no effect, 100 complete control, read-out: Plant response rating, Pigweed
  pest or weed control at 125 g/ha: 60%
[7]; 31 g ai/ha, 0 is no effect, 100 is complete control, read-out: Foxtail, Giant plant response rating (0 to 100 scale)
  pest or weed control at 31 g/ha: 70%
[7]; 125 g ai/ha, visual injury after approx. 10 d, 0 to 100 scale, 0 no effect, 100 complete control, read-out: Plant response rating, Foxtail, Giant
  pest or weed control at 125 g/ha: 90%
[8]; 31 g ai/ha, 0 is no effect, 100 is complete control, read-out: Blackgrass plant response rating (0 to 100 scale)
  pest or weed control at 31 g/ha: 20%
[8]; 125 g ai/ha, visual injury after approx. 10 d, 0 to 100 scale, 0 no effect, 100 complete control, read-out: Plant response rating, Blackgrass
  pest or weed control at 125 g/ha: 30%
[9]; 31 g ai/ha, 0 is no effect, 100 is complete control, read-out: Barnyardgrass plant response rating (0 to 100 scale)
  pest or weed control at 31 g/ha: 70%
[9]; 125 g ai/ha, visual injury after approx. 10 d, 0 to 100 scale, 0 no effect, 100 complete control, read-out: Plant response rating, Barnyardgrass
  pest or weed control at 125 g/ha: 90%
[10]; 31 g ai/ha, 0 is no effect, 100 is complete control, read-out: Ragweed plant response rating (0 to 100 scale)
  pest or weed control at 31 g/ha: 0%
[10]; 125 g ai/ha, visual injury after approx. 10 d, 0 to 100 scale, 0 no effect, 100 complete control, read-out: Plant response rating, Ragweed
  pest or weed control at 125 g/ha: 50%
Kochia (Kochia scoparia) [11]; 31 g ai/ha, 0 is no effect, 100 is complete control, read-out: Kochia plant response rating (0 to 100 scale)
  pest or weed control at 31 g/ha: 30%
Kochia (Kochia scoparia) [11]; 125 g ai/ha, visual injury after approx. 10 d, 0 to 100 scale, 0 no effect, 100 complete control, read-out: Plant response rating, Kochia
  pest or weed control at 125 g/ha: 70%
Corn (Zea mays); 31 g ai/ha, 0 is no effect, 100 is complete control, read-out: Corn plant response rating (0 to 100 scale)
  plant injury at 31 g/ha: 0%
Corn (Zea mays); 125 g ai/ha, visual injury after approx. 10 d, 0 to 100 scale, 0 no effect, 100 complete control
  Corn plant response rating (crop injury, 0 = no effect, 100 = complete kill) at 125 g/ha: 80%
[12]; 31 g ai/ha, 0 is no effect, 100 is complete control, read-out: Ryegrass, Italian plant response rating (0 to 100 scale)
  pest or weed control at 31 g/ha: 0%
[12]; 125 g ai/ha, visual injury after approx. 10 d, 0 to 100 scale, 0 no effect, 100 complete control, read-out: Plant response rating, Ryegrass, Italian
  pest or weed control at 125 g/ha: 20%
[13]; 31 g ai/ha, 0 to 100 scale where 0 is no effect and 100 is complete control, read-out: Pigweed plant response rating
  pest or weed control at 31 g/ha: 30%
[13]; 125 g ai/ha, 0 to 100 scale (0 no effect, 100 complete control), read-out: Plant response rating, Pigweed
  pest or weed control at 125 g/ha: 80%
[14]; 31 g ai/ha, 0 to 100 scale where 0 is no effect and 100 is complete control, read-out: Foxtail, Giant plant response rating
  pest or weed control at 31 g/ha: 80%
[14]; 125 g ai/ha, 0 to 100 scale (0 no effect, 100 complete control), read-out: Plant response rating, Foxtail, Giant
  pest or weed control at 125 g/ha: 90%
[15]; 31 g ai/ha, 0 to 100 scale where 0 is no effect and 100 is complete control, read-out: Barnyardgrass plant response rating
  pest or weed control at 31 g/ha: 40%
[15]; 125 g ai/ha, 0 to 100 scale (0 no effect, 100 complete control), read-out: Plant response rating, Barnyardgrass
  pest or weed control at 125 g/ha: 90%
[16]; 31 g ai/ha, 0 to 100 scale where 0 is no effect and 100 is complete control, read-out: Ragweed plant response rating
  pest or weed control at 31 g/ha: 30%
[16]; 125 g ai/ha, 0 to 100 scale (0 no effect, 100 complete control), read-out: Plant response rating, Ragweed
  pest or weed control at 125 g/ha: 90%
Kochia (Kochia scoparia) [17]; 31 g ai/ha, 0 to 100 scale where 0 is no effect and 100 is complete control, read-out: Kochia plant response rating
  pest or weed control at 31 g/ha: 40%
Kochia (Kochia scoparia) [17]; 125 g ai/ha, 0 to 100 scale (0 no effect, 100 complete control), read-out: Plant response rating, Kochia
  pest or weed control at 125 g/ha: 70%
[18]; 31 g ai/ha, 0 to 100 scale where 0 is no effect and 100 is complete control, read-out: Ryegrass, Italian plant response rating
  pest or weed control at 31 g/ha: 0%
[18]; 125 g ai/ha, 0 to 100 scale (0 no effect, 100 complete control), read-out: Plant response rating, Ryegrass, Italian
  pest or weed control at 125 g/ha: 20%
